From patent publication US4531001A, “2-β-D-ribofuranosylselenazole-4-carboxamide compounds” (priority 1983, dated 1985)
Converted amounts (≈) assume the structure as drawn. “And” between values parts separate entries of the source, which are not always exact repeats. Equal entries are not always repeated. Where two headings read alike, the source gives them in different places.

Key:
3 mouse tumor lines = assay: Growth inhibition in suspension cell culture, representative tumor lines; type: cell-based; settings: representative tumor lines in cell culture
Method: (§1) In further tests, growth-inhibitory effects of COMPOUND 1 and COMPOUND 2 were measured against 3 mouse tumor lines in suspension cell culture. Cell cultures were initiated at a density of 50,000 cells/ml in medium RPMI 1630 supplemented with 10 percent fetal calf serum. Composition of this culture medium and details of the culture procedure followed the published method (G. E. Moore, A. A. Sandberg and K. Ulrich, Suspension Cell Culture and in vivo and in-vitro chromosome constitution of mouse leukemia L1210, Journal of the National Cancer Institute 36, 405-415, 1966). Cultures were maintained at 37 degrees in stationary suspension culture under a 95 percent air+5 percent CO2 atmosphere. Test compounds were added to treated cultures at the time of initiation, and were present continually. After 72 hours, 40-fold dilutions of drug-treated and untreated control cultures were prepared in 0.9 percent NACl solution, and cells were counted on an electronic particle counter. The growth-inhibitory effects are expressed as ID50 values, namely, test compound inhibitory dosages or concentrations required to decrease cell count in treated cultures to 50 percent of the cell count of untreated control cultures.

Lewis lung carcinoma = assay: Lewis lung in vivo mouse model, low doses, Example 13 (Table III); parameters: species or system B6 D2 F1 female mice; settings: for Treated Group Survival Time: control 20.2
Method: As illustrative examples of the antitumor use of COMPOUNDS 1 and 2, Examples 12 through 14, below, are given. […] The tests utilized in these illustrative examples were conducted by the Developmental Therapeutics Program, Division of Cancer Treatment, National Cancer Institute. The tests were supervised by this agency utilizing their standard protocols and procedures. All tests conformed to these protocols and all tests were evaluated under the criteria defined by these protocols. The following representative examples illustrate confirmed activity of the illustrative compounds of the invention against screening tumor systems of the National Cancer Institute.
For purposes of the following examples, the abbreviation IP stands for intraperitoneal and IV stands for intravenous. The mean and median survival times are calculated in instruction 14 (revised 6/78) of the Screening Data Summary, Developmental Therapeutics Program, Division of Cancer Treatment, National Cancer Institute. The contents of this Screening Data Summary including appropriate revisions are herein incorporated by reference.
In the illustrated examples below, the vehicle used as carrier for the drug was injected (minus any drug therein) into the control animals at the same level of use of the vehicle in the drug treated animals in order to eliminate any vehicle effect of the tests.
COMPOUND 1 was further tested in a Lewis lung in vivo mouse model using B6 D2 F1 female mice challenged with Lewis lung carcinoma.

L-1210 = assay: Growth inhibition in suspension cell culture, L-1210; type: cell-based; settings: Mus musculus, L1210, 72 hours, cell count 50 percent of untreated control, read-out: ID50 (the source's name)
Method: as §1

B16 Melanoma = assay: Growth inhibition in suspension cell culture, B16 Melanoma; type: cell-based; settings: Mus musculus, 72 hours, cell count 50 percent of untreated control, read-out: ID50 (the source's name)
Method: as §1

Mumps = assay: Antiviral activity (virus rating method); type: cell-based; settings: for Virus Rating: >1.0 definite, 0.5-0.9 moderate, <0.5 slight or no activity; for EC50: read-out: ED50 (the source's name)
Excerpt: (§2) Microbiol. 22, 797 (1971). A virus rating that is greater than 1.0 indicates definite antiviral activity. […] The results reported below were obtained by testing on Microtest II (Falcon Plastics) plastic panels with a monolayer of Vero or HeLa cells.

Cox B1 = assay: Antiviral activity (virus rating method); type: cell-based; settings: for Virus Rating: >1.0 definite, 0.5-0.9 moderate, <0.5 slight or no activity; for EC50: read-out: ED50 (the source's name)
Excerpt: as §2

Measles = assay: Antiviral activity (virus rating method); type: cell-based; settings: for Virus Rating: >1.0 definite, 0.5-0.9 moderate, <0.5 slight or no activity; for EC50: Measles morbillivirus, read-out: ED50 (the source's name)
Excerpt: as §2

Para 3 = assay: Antiviral activity (virus rating method); type: cell-based; settings: for Virus Rating: >1.0 definite, 0.5-0.9 moderate, <0.5 slight or no activity; for EC50: read-out: ED50 (the source's name)
Excerpt: as §2

VV = assay: Antiviral activity (virus rating method); type: cell-based; settings: for Virus Rating: >1.0 definite, 0.5-0.9 moderate, <0.5 slight or no activity; for EC50: read-out: ED50 (the source's name)
Excerpt: as §2

Reo 3 = assay: Antiviral activity (virus rating method); type: cell-based; settings: for Virus Rating: >1.0 definite, 0.5-0.9 moderate, <0.5 slight or no activity; for EC50: read-out: ED50 (the source's name)
Excerpt: as §2

HSV-1 = assay: Antiviral activity (virus rating method); type: cell-based; settings: for Virus Rating: >1.0 definite, 0.5-0.9 moderate, <0.5 slight or no activity; for EC50: read-out: ED50 (the source's name)
Excerpt: as §2

HSV-2 = assay: Antiviral activity (virus rating method); type: cell-based; settings: for Virus Rating: >1.0 definite, 0.5-0.9 moderate, <0.5 slight or no activity; for EC50: read-out: ED50 (the source's name)
Excerpt: as §2

Cox B4 = assay: Antiviral activity (virus rating method); type: cell-based; settings: for Virus Rating: >1.0 definite, 0.5-0.9 moderate, <0.5 slight or no activity
Excerpt: as §2

Ad-2 = assay: Antiviral activity (virus rating method); type: cell-based
Excerpt: as §2

[1] = Solubility in aqueous media
[2] = HeLa, read-out: ED50 (the source's name)

Structure (SMILES): NC(=O)c1c[se]c([C@@H]2O[C@H](CO)[C@@H](O)[C@H]2O)n1 [COMPOUND 1, 2-β-D-ribofuranosylselenazole-4-carboxamide]
- growth inhibition in words (3 mouse tumor lines): inhibit growth in cell culture for representative tumor lines at extremely low dosage
- Cures (Lewis lung carcinoma; 0.75 mg/kg): 0/10
- Percent Treated Animals/Control Animals (T/C) (Lewis lung carcinoma; 0.75 mg/kg): 107%
- Treated Group Survival Time (Lewis lung carcinoma; 0.75 mg/kg): 21.7
- Cures (Lewis lung carcinoma; 1.50 mg/kg): 0/10
- Percent Treated Animals/Control Animals (T/C) (Lewis lung carcinoma; 1.50 mg/kg): 110%
- Treated Group Survival Time (Lewis lung carcinoma; 1.50 mg/kg): 22.3
- Cures (Lewis lung carcinoma; 3.00 mg/kg): 0/10
- Percent Treated Animals/Control Animals (T/C) (Lewis lung carcinoma; 3.00 mg/kg): 153%
- Treated Group Survival Time (Lewis lung carcinoma; 3.00 mg/kg): 31.0
- DN2 level activity (Lewis lung carcinoma; 3 mg/kg, percent T/C greater than 150): achieved DN2 level activity
- Cures (Lewis lung carcinoma; 6.00 mg/kg): 5 out of 10 and 5/10
- Percent Treated Animals/Control Animals (T/C) (Lewis lung carcinoma; 6.00 mg/kg): 297%
- Treated Group Survival Time (Lewis lung carcinoma; 6.00 mg/kg): 60.0
- Cures (Lewis lung carcinoma; 12.00 mg/kg): 9/10
- Percent Treated Animals/Control Animals (T/C) (Lewis lung carcinoma; 12.00 mg/kg): 297%
- Treated Group Survival Time (Lewis lung carcinoma; 12.00 mg/kg): 60.0
- Cures (Lewis lung carcinoma; 24.00 mg/kg): 9 out of 10 and 9/10
- Percent Treated Animals/Control Animals (T/C) (Lewis lung carcinoma; 24.00 mg/kg): 297%
- Treated Group Survival Time (Lewis lung carcinoma; 24.00 mg/kg): 60.0
- antitumor activity in words (Lewis lung carcinoma; mouse, in vivo): effective antitumor agent
- IC50 (L-1210): 400 nM
- IC50 (B16 Melanoma): 3500 nM
- Virus Rating (Mumps; HeLa): 1.0
- EC50 (Mumps; HeLa): 1 µg/mL (≈ 3.26 µM)
- Virus Rating (Mumps; Vero): 1.7
- EC50 (Mumps; Vero): 5 µg/mL (≈ 16.3 µM)
- antiviral activity in words (Cox B1; HeLa cells, Picornaviridae (Cox B1)): Excellent antiviral activity
- Virus Rating (Cox B1; HeLa): 1.8
- EC50 (Cox B1; HeLa): 10 µg/mL (≈ 32.6 µM)
- Virus Rating (Cox B1; Vero): 1.7
- EC50 (Cox B1; Vero): 15 µg/mL (≈ 48.8 µM)
- Virus Rating (Measles; HeLa): 1.8
- EC50 (Measles; HeLa): 2 µg/mL (≈ 6.51 µM)
- EC50 (Measles; Vero): 1 µg/mL (≈ 3.26 µM)
- Virus Rating (Measles; Vero): 2.0
- Virus Rating (Para 3; HeLa): 2.2
- EC50 (Para 3; HeLa): 1 µg/mL (≈ 3.26 µM)
- type of antiviral activity (Para 3; Para-3, depending upon cell line): virusstatic
- Virus Rating (Para 3; Vero): 2.6
- EC50 (Para 3; Vero): 1 µg/mL (≈ 3.26 µM)
- Virus Rating (VV; HeLa): 2.4
- EC50 (VV; HeLa): 2 µg/mL (≈ 6.51 µM)
- type of antiviral activity (VV; Vaccinia, depending upon cell line): virucidal
- Virus Rating (VV; Vero): 2.1
- EC50 (VV; Vero): 3 µg/mL (≈ 9.77 µM)
- Virus Rating (Reo 3; HeLa): 2.7
- EC50 (Reo 3; HeLa): 8 µg/mL (≈ 26 µM)
- Virus Rating (Reo 3; Vero): 1.8
- EC50 (Reo 3; Vero): 1 µg/mL (≈ 3.26 µM)
- type of antiviral activity (HSV-1; HSV-1, depending upon cell line): virusstatic
- Virus Rating (HSV-1; HeLa): 1.4
- EC50 (HSV-1; Human alphaherpesvirus 1, HeLa): 2 µg/mL (≈ 6.51 µM)
- EC50 (HSV-1; Human alphaherpesvirus 1, Vero): 30 µg/mL (≈ 97.7 µM)
- Virus Rating (HSV-1; Vero): 1.2
- Virus Rating (HSV-2; HeLa): 1.5
- EC50 (HSV-2; Human alphaherpesvirus 2, HeLa): 4 µg/mL (≈ 13 µM)
- EC50 (HSV-2; Human alphaherpesvirus 2, Vero): 10 µg/mL (≈ 32.6 µM)
- Virus Rating (HSV-2; Vero): 1.5
- antiviral activity in words (Cox B4; HeLa cells, Picornaviridae (Cox B4)): Excellent antiviral activity
- Virus Rating (Cox B4; HeLa): 2.3
- EC50 (Cox B4; [2]): 6 µg/mL (≈ 19.5 µM)
- EC50 (Cox B4; Vero, read-out: ED50): 1000 µg/mL (≈ 3260 µM)
- Virus Rating (Cox B4; Vero): 0.0
- antiviral activity in words (Ad-2; HeLa cells, Adenoviridae (Adeno-2)): Excellent antiviral activity
- Virus Rating (Ad-2; HeLa, >1.0 definite, 0.5-0.9 moderate, <0.5 slight or no activity): 1.9
- EC50 (Ad-2; [2]): 9 µg/mL (≈ 29.3 µM)
- solubility in aqueous media [1]: soluble in aqueous media
